Measured values reported in patent US7323457B2, “Substituted sulfonamides and ureas useful for inhibiting kinase activity” (Aventis Pharmaceuticals Inc., priority 2001, dated 2008).

Biological target: Src Kinase (p60^C-Src) (Homo sapiens, UniProt P12931)
Test: Src kinase DELFIA time-resolved fluorometric assay
Format: biochemical
Conditions: Src kinase inhibitory activity; 100 μM ATP, poly(Glu, Tyr) 4:1 substrate, 15 min at room temp.; read-out: Activity (μMol, Delfia assay. IC50)
Protocol: The compounds 1-25 above were assayed for activity with respect to the Src protein tyrosine kinase by the fluorometric method described in Measurement of the Protein Tyrosine Kinase Activity of c-Src Using Time-Resolved Fluorometry of Europium Chelates, Braunwalder, A.F. et al., Analytical Biochemistry 238, 159-164 (1996), the disclosure of which is incorporated herein by reference, using the materials and procedures further specified below.
General Assay Method for Src-Kinase:
• Costar 384 Clear, non-treated, high-binding plates • Sigma poly(Glu, Tyr) 4:1, ave. MW 35,000 • Src Kinase (p60^C-Src) • Sigma ATP (1.5 mM Stock Soln. in H2O) • MES Buffer: 30 mM MES (pH 6.8) • 10 mM MgCl2 • MBI Buffer: (MES+0.4 mg/ml BSA+0.003% IGEPAL) • Wallac Eu-labelled anti-phosphotyrosine Antibody (CR04-100) • Coating Solution: • 22.5 mM Na2CO3 (pH 9.6) • 27.5 mM NaHCO3 • 0.9% NaCl • Antibody Dilution Buffer: (MES+3% BSA) • DELFIA® Wash Solution (TTBS): • 0.5 M NaCl • 20 mM Tris (pH7.4) • 0.15% Tween 20 • DELFIA Enhancement Solution Method:
The plates were coated with 0.1 mg/ml poly(Glu, Tyr) in Coating Solution, 35 μl/well. […]
The reaction was stopped by aspiration, and then washed 3 times with MES (100 μl/wash). […] 20 μl DELFIA enhancement solution was added and the plates were read on a Wallac Victor plate reader in time-resolved fluorescence mode using 340 nm excitation and 615 nm emission wavelengths.

- IC50: 22 µM
Substance: [4-(Piperidin-4-yl)carbonyl-1-[[2-(4-phenylbutanoyl) amino]-4-[(1-aminocarbonyl-2-(naphth-2-yl))ethylamino]-carbonylaminophenyl]homopiperazine [Example 21]
